In patent publication US20190225650A1, “PEPTIDOMIMETIC MACROCYCLES AND USE THEREOF IN REGULATING HIF1ALPHA” (AILERON THERAPEUTICS, INC., priority 2013, published 2019):
Bridge positions count the residues as written; N and C are the ends. Square brackets hold non-standard residues; d marks the D form. Peptide text beside a SMILES is read from it. R8 = C=CCCCCCC[C@@](C)(N)C(=O)O; S5 = C=CCCC[C@](C)(N)C(=O)O; Nle = CCCC[C@H](N)C(=O)O

What follows are molecules tested against T1, flag-tagged HIF1α (AA 786-826) / His6-tagged p300 (AA 323-423) complex (Homo sapiens, UniProt Q09472) (assay: HIF1α p300 displacement assay (TR FRET, +CHAPS)). Conditions: read-out: IC50 (nM) (HIF1α_p300 Displacement + CHAPS).
T1 construct: His6-tagged p300 (AA 323-423); made in house; host or cells: E. coli (pETDuet vector)
Assay type: binding
Procedure: The ability of peptides to displace HIF1α c-terminal trans-activation domain from p300-CH was measured by a TR FRET assay. A complex of flag-tagged HIF1α (AA 786-826) and His6-tagged p300 (AA 323-423) was co-expressed using pETDuet vector (EMDMillipore, Bellrica Mass.) and purified from E. coli in the presence of 0.1 mM ZnSO4. The complex was diluted to 300 nM final in complete assay media and competitor peptides were added. The complete assay media contained 150 mM NaCl (Sigma +S5150 or equivalent), 20 mM HEPES pH 7.4 (Boston Bioproducts, Ashland, Mass.; #BB-2076), 7.5 mM CHAPS (Thermo #28300 or equivalent), and 1 mM DTT. Protein and peptide were incubated at room temperature for 1 hour before the addition of anti-Flag-K and anti-6×HIS-D2 (CisBio, Bedford Mass.) HTRF reconstitution buffer (50 mM Phosphate pH 7, 0.8 Potassium Flouride, BSA 0.2%)^1 to a final concentration of 0.5 μM and 4 nM respectively. The reaction continued for an additional two hours at room temperature. The reaction was read on a TECAN F500 plate reader with settings recommended by CisBio. The ratio of donor to acceptor fluorescence was calculated. The resulting data was analyzed with Graphpad Prism 5.0. IC50 values were calculated for both proteins using the One Site Fit-LogIC50 equation and presented in the column “IC50 (nM) (HIF1α_p300 Displacement+CHAPS)” of Table 6. ^1 Cisbio USA, Bedford, Mass.; 61HISDLB (lot 007A), 61FG2KLB (024A), HTRF Buffer (62RB3RDF)

Row | Structure (SMILES) | IC50 [nM]
1 | CCCC[C@H](NC(=O)[C@H](CC(C)C)NC(=O)[C@@H](NC(=O)[C@H](CCC(=O)O)NC(=O)[C@H](CCC(=O)O)NC(=O)[C@H](CC(=O)O)NC(=O)[C@@H](NC(=O)[C@H](CC(N)=O)NC(=O)[C@@H](NC(=O)[C@H](CCC(N)=O)NC(=O)[C@H](CC(=O)O)NC(=O)[C@H](CC(C)C)NC(=O)[C@H](C)NC(=O)[C@H](CCCNC(=N)N)NC(=O)[C@]1(C)CCCC=CCCC[C@](C)(NC(=O)[C@H](CCC(N)=O)NC(=O)[C@H](CC(C)C)NC(=O)[C@H](CC(C)C)NC(C)=O)C(=O)N[C@@H](CCC(=O)O)C(=O)N[C@@H](CCC(=O)O)C(=O)N[C@@H](CC(C)C)C(=O)N1)C(C)C)[C@@H](C)CC)C(C)C)C(=O)N[C@@]1(C)CCCC=CCCC[C@@](C)(C(=O)N[C@@H](CCCC)C(=O)N[C@@H](C)C(=O)N[C@@H](CC(C)C)C(N)=O)NC(=O)[C@H]([C@@H](C)CC)NC(=O)[C@H](C(C)C)NC(=O)[C@H](CC(C)C)NC1=O [SP-370] (Ac-LLQ[S5]EEL[S5]RALDQVNIDEEVL[Nle][S5]LVI[S5][Nle]AL-NH2; staple 4-8, 23-27) | > 700
2 | CCCC[C@H](NC(=O)[C@H](CC(C)C)NC(=O)[C@@H](NC(=O)[C@H](C)NC(=O)[C@H](CCC(=O)O)NC(=O)[C@H](C)NC(=O)[C@@H](NC(=O)[C@H](Cc1ccccc1)NC(C)=O)[C@@H](C)CC)C(C)C)C(=O)N[C@@]1(C)CCCC=CCCC[C@@](C)(C(=O)N[C@@H](CCCC)C(=O)N[C@@H](C)C(=O)N[C@@H](CC(C)C)C(=O)N[C@@H](CC(=O)O)C(=O)N[C@@H](C)C(=O)N[C@H](C(N)=O)[C@@H](C)CC)NC(=O)[C@H]([C@@H](C)CC)NC(=O)[C@H](C(C)C)NC(=O)[C@H](CC(C)C)NC1=O [SP-222] (Ac-FIAEAVL[Nle][S5]LVI[S5][Nle]ALDAI-NH2; staple 9-13) | 200 to 400
3 | CC[C@H](C)[C@H](NC(=O)[C@H](Cc1ccccc1)NC(C)=O)C(=O)N[C@@H](CC(=O)O)C(=O)N[C@@H](CCC(=O)O)C(=O)N[C@@]1(C)CCCC=CCCC[C@@](C)(C(=O)N[C@@H](CC(C)C)C(=O)N[C@H](C(=O)N[C@H](C(=O)N[C@@H](CCC(=O)O)C(=O)N[C@@H](CCSC)C(=O)N[C@@H](C)C(N)=O)[C@@H](C)CC)C(C)C)NC(=O)[C@H](CCSC)NC(=O)[C@H](CC(C)C)NC(=O)[C@H](C(C)C)NC1=O [SP-115] (Ac-FIDE[S5]VLM[S5]LVIEMA-NH2; staple 5-9) | > 700
4 | CCCC[C@H](NC(=O)[C@H](CCC(=O)O)NC(=O)[C@@H](NC(=O)[C@@H](NC(=O)[C@H](CC(C)C)NC(=O)[C@]1(C)CCCC=CCCC[C@](C)(NC(=O)[C@H](CCC(=O)O)NC(=O)[C@H](CC(=O)O)NC(=O)[C@@H](NC(=O)[C@H](Cc2ccccc2)NC(C)=O)[C@@H](C)CC)C(=O)N[C@@H](C(C)C)C(=O)N[C@@H](CC(C)C)C(=O)N[C@@H](CCCC)C(=O)N1)C(C)C)[C@@H](C)CC)C(=O)N[C@@H](C)C(=O)N[C@@H](CC(C)C)C(=O)N[C@@H](CCCCN)C(N)=O [SP-132] (Ac-FIDE[S5]VL[Nle][S5]LVIE[Nle]ALK-NH2; staple 5-9) | > 700
5 | CC[C@H](C)[C@H](NC(=O)[C@H](Cc1ccccc1)NC(C)=O)C(=O)N[C@@H](CC(=O)O)C(=O)N[C@@H](CCC(=O)O)C(=O)N[C@]1(C)CCCCCCC=CCCC[C@@](C)(C(=O)N[C@@H](CCC(=O)O)C(=O)N[C@@H](CCSC)C(=O)N[C@@H](C)C(=O)N[C@@H](C)C(=O)N[C@@H](C)C(N)=O)NC(=O)[C@H](C(C)C)NC(=O)[C@H](CC(C)C)NC(=O)[C@H](CO)NC(=O)[C@H](CCSC)NC(=O)[C@H](CC(C)C)NC(=O)[C@H](C(C)C)NC1=O [SP-179] (Ac-FIDE[R8]VLMSLV[S5]EMAAA-NH2; staple 5-12) | > 700
